The source made the active and inactive calls. The rule behind the calls is not given here.
Legend:
DNA [1] = test: Binding affinity to dsDNA (unknown origin) by fluorescence-based screening assay; assay type: nucleic-acid assay
DNA [2] = test: Binding affinity to dsDNA (unknown origin) assessed as DNA intercalation by measuring change in fluorescence intensity by fluorescence-based screening assay; assay type: nucleic-acid assay
MALAT1 triple helix RNA [3] = test: Binding affinity to MALAT1 triple helix RNA (unknown origin) assessed as RNA intercalation by measuring change in fluorescence intensity by fluorescence-based screening assay; assay type: nucleic-acid assay
MALAT1 triple helix RNA [4] = test: Binding affinity to MALAT1 triple helix RNA (unknown origin) by fluorescence-based screening assay; assay type: nucleic-acid assay
MCF7 = test: Cytotoxicity against human MCF7 cells assessed as cell viability incubated for 48 hrs; assay type: functional, cell-based; conditions: MCF7, 48 h
L929 = test: Cytotoxicity against mouse L929 cells; assay type: toxicity, cell-based
HeLa = test: Cytotoxicity against human HeLa cells; assay type: functional, cell-based
SK-OV-3 = test: Cytotoxicity against human SK-OV-3 cells; assay type: functional, cell-based
MALAT1 triple helix RNA [5] = test: Binding affinity to MALAT1 triple helix RNA (unknown origin) assessed as […] by measuring conformational change at 2.5 to 5.0 uM at 25 to 65 degreeC by temperature dependent CD analysis; assay type: nucleic-acid assay; conditions: dose 2.5-5 µM

Row | SMILES | deltaFI (DNA [2]) | EC50 (MALAT1 triple helix RNA [4]) | also measured
1 | O=c1c2ccccc2n2c(=O)c3ccccc3nc2n1Cc1cccc(C(F)(F)F)c1 | 0.76 | 800 nM | EC50 (DNA [1]): 1000 nM; deltaFI (MALAT1 triple helix RNA [3]): 0.504
2 | O=c1c2ccccc2n2c(=O)c3ccccc3nc2n1Cc1cccc2ccccc12 | 0.014 | – | –
3 | O=c1c2ccccc2n2c(=O)c3ccccc3nc2n1Cc1ccc([N+](=O)[O-])cc1 | 0.079 | – | –
4 | COC(=O)c1ccc(Cn2c(=O)c3ccccc3n3c(=O)c4ccccc4nc23)cc1 | 0.426 | – | –
5 | O=c1c2ccccc2n2c(=O)c3ccccc3nc2n1-c1ccc(C(F)(F)F)cc1 | 0.084 | – | –
6 | N=C(N)c1ccc(-c2ccc(-c3ccc(C(=N)N)cc3)o2)cc1 [FURAMIDINE] | – | 600 nM | IC50 (MCF7): 90000 nM
7 | O=c1c2ccccc2n2c(=O)c3ccccc3nc2n1Cc1ccc(OC(F)(F)F)cc1 | 0.29 | – | –
8 | O=c1c2ccccc2n2c(=O)c3ccccc3nc2n1CCCn1c(=O)c2ccccc2n2c(=O)c3ccccc3nc12 | 1 | 1100 nM | Activity (L929): Non-toxic; EC50 (DNA [1]): 1400 nM; deltaFI (MALAT1 triple helix RNA [3]): 1; IC50 (HeLa): 63200 nM; IC50 (SK-OV-3): 8000 nM; Activity (MALAT1 triple helix RNA [5]): Active
9 | COc1cccc2c1C(=O)c1c(O)c3c(c(O)c1C2=O)C[C@@](O)(C(=O)CO)C[C@@H]3O[C@H]1C[C@H](N)[C@H](O)[C@H](C)O1 [DOXORUBICIN] | – | – | IC50 (SK-OV-3): 534 nM
10 | N#Cc1ccc(Cn2c(=O)c3ccccc3n3c(=O)c4ccccc4nc23)cc1 | 0.172 | – | –
